Data: PubChem BioAssay (NCI)
“And” between values parts separate entries of the source, which are not always exact repeats. Identical values can stand only once.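 A five-concentration, 48-hour dose response in 96-well plates underlies each endpoint, interpolated linearly between surrounding concentrations. At the GI50, growth is halved. TGI: total growth inhibition.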

What was measured:
Assay in all cases: growth of human tumour cells (NCI), 48 h
[1] = system: 786-0 renal
[2] = system: A498 renal
[3] = system: A549 NSCLC
[4] = system: ACHN renal
[5] = system: BT-549 breast
[6] = system: CAKI-1 renal
[7] = system: CCRF-CEM leukemia
[8] = system: COLO 205 colon
[9] = system: DLD-1 colon
[10] = system: DMS 273 small cell lung
[11] = system: DU-145 prostate
[12] = system: EKVX NSCLC
[13] = system: HCC-2998 colon
[14] = system: HCT-116 colon
[15] = system: HCT-15 colon
[16] = system: HL-60(TB) leukemia
[17] = system: HOP-18 NSCLC
[18] = system: HOP-62 NSCLC
[19] = system: HS 578T breast
[20] = system: HT29 colon
[21] = system: IGROV1 ovarian
[22] = system: KM12 colon
[23] = system: KM20L2 colon
[24] = system: LXFL 529 NSCLC
[25] = system: M14 melanoma
[26] = system: M19-MEL melanoma
[27] = system: MALME-3M melanoma
[28] = system: MCF7 breast
[29] = system: MDA-MB-231 breast
[30] = system: MDA-MB-435
[31] = system: MDA-N
[32] = system: NCI-H226 lung
[33] = system: NCI-H23 lung
[34] = system: NCI-H460 lung
[35] = system: NCI-H522 lung
[36] = system: NCI/ADR-RES ovarian
[37] = system: OVCAR-3 ovarian
[38] = system: OVCAR-4 ovarian
[39] = system: OVCAR-5 ovarian
[40] = system: OVCAR-8 ovarian
[41] = system: PC-3 prostate
[42] = system: RPMI-8226 leukemia
[43] = system: RXF 393 renal
[44] = system: SF-268 CNS
[45] = system: SF-295 CNS
[46] = system: SF-539 CNS
[47] = system: SK-MEL-2 melanoma
[48] = system: SK-MEL-28 melanoma
[49] = system: SK-MEL-5 melanoma
[50] = system: SK-OV-3 ovarian
[51] = system: SN12C renal
[52] = system: SNB-19 CNS
[53] = system: SNB-75 CNS
[54] = system: SNB-78 CNS
[55] = system: SR leukemia
[56] = system: SW-620 colon
[57] = system: T-47D breast
[58] = system: TK-10 renal
[59] = system: U251 CNS
[60] = system: UACC-257 melanoma
[61] = system: UACC-62 melanoma
[62] = system: UO-31 renal

`COc1cc2c(cc1OC)[C@@H](Nc1ccc(C#N)cc1)C1COC(=O)[C@@H]1C2c1cc(OC)c(O)c(OC)c1` (some centres undefined) was tested, and the TGI [1] was 2.76 µM, the TGI [2] was 0.794 µM and the GI50 [3] was 0.147 µM and 0.1 µM. For the same compound, the TGI [3] was 7.31 µM and 4.95 µM, the TGI [4] was 1.01 µM and the TGI [5] was 9.78 µM. For the same compound, the GI50 [6] was 0.223 µM and 0.166 µM, the GI50 [7] was 0.0111 µM and 0.0152 µM and the TGI [7] was 0.0709 µM and 0.451 µM. It also gave a TGI [8] of 15.6 µM, a TGI [9] of 9.29 µM and a TGI [10] of 1.9 µM. The TGI [11] was > 100 µM, the GI50 [12] was 16.4 µM and 6.9 µM and the TGI [12] was 95 µM and 62.5 µM. The GI50 [13] was 0.665 µM and 2.72 µM, the GI50 [14] was 6.81 µM and 3.23 µM and the TGI [14] was 25.8 µM and > 100 µM. For the same compound, the GI50 [15] was 0.91 µM and 1.39 µM, the TGI [16] was 0.0606 µM and 0.192 µM and the TGI [17] was 95 µM. The GI50 [18] was 0.0277 µM and 0.0929 µM, the TGI [18] was 0.325 µM and 0.492 µM and the TGI [19] was 7.54 µM. For the same compound, the TGI [20] was 23.2 µM and > 100 µM, the GI50 [21] was 7.06 µM and 5.07 µM and the TGI [21] was 95 µM and > 100 µM. The GI50 [22] was 1.43 µM, the TGI [23] was 95 µM and the TGI [24] was 95 µM. For the same compound, the GI50 [25] was 0.515 µM and 0.342 µM, the TGI [25] was 95 µM and > 100 µM and the TGI [26] was 95 µM. For the same compound, the GI50 [27] was 1.36 µM and 2.47 µM, the TGI [27] was 70.7 µM and 44.2 µM and the TGI [28] was > 100 µM. The TGI [29] was 6.67 µM, the TGI [30] was > 100 µM and the TGI [31] was > 100 µM. For the same compound, the TGI [32] was 0.298 µM, the GI50 [33] was 0.159 µM and 0.0337 µM and the TGI [33] was 1.47 µM and 0.257 µM. The TGI [34] was 1.05 µM and 1.72 µM, the GI50 [35] was 1.11 µM and 5.06 µM and the TGI [36] was > 100 µM. The GI50 [37] was 3.26 µM and 5.65 µM, the TGI [37] was 20 µM and 28.4 µM and the GI50 [38] was 19.1 µM and 26.8 µM. For the same compound, the TGI [38] was 75.1 µM and > 100 µM, the GI50 [39] was 0.545 µM and 2.05 µM and the TGI [39] was 95 µM and > 100 µM. The GI50 [40] was 0.472 µM and 1.55 µM, the TGI [41] was > 100 µM and the TGI [42] was 0.225 µM and 0.65 µM. The TGI [43] was 35.9 µM, the GI50 [44] was 0.342 µM and 0.663 µM and the TGI [45] was 2 µM and 3.21 µM. The TGI [46] was 0.856 µM, the GI50 [47] was 3.7 µM and 1.49 µM and the TGI [47] was 23 µM and 5.86 µM. For the same compound, the GI50 [48] was 3.4 µM and 6.94 µM, the TGI [48] was 95 µM and > 100 µM and the GI50 [49] was 0.499 µM and 0.292 µM. The TGI [49] was 14.3 µM and 2.53 µM, the GI50 [50] was 0.195 µM and 0.548 µM and the TGI [51] was 2.28 µM. The TGI [52] was 95 µM, the TGI [53] was 4 µM and 2.11 µM and the TGI [54] was 95 µM. For the same compound, the TGI [55] was 0.0742 µM, the TGI [56] was 18.8 µM and > 100 µM and the TGI [57] was > 100 µM. The GI50 [58] was 2.49 µM and 1.06 µM, the TGI [58] was 6.73 µM and 7.87 µM and the GI50 [59] was 0.0457 µM and 0.178 µM. For the same compound, the TGI [60] was 95 µM and > 100 µM, the GI50 [61] was 0.372 µM and 0.167 µM and the TGI [61] was 12.9 µM and 2.68 µM. For the same compound, the TGI [62] was 11.9 µM.
